Values after ≈ are worked out from the molar mass of the structure shown. Like-named read-outs stand apart in the source and are kept apart here.
How the values were obtained:
[1] = system: 48 rhinovirus types and coxsackievirus A21, B3, enterovirus 70 and echovirus 11; settings: cell culture; cited from earlier work
[2] = clinical studies; cited from earlier work
in vitro = settings: human
Coxsackie A24(DN) = experiment: CPE inhibition assay, Coxsackie A24(DN); type: cell-based; settings: MRC5, 48 h; MRC-5, 37° C., 2 days, FDA
Poliovirus 3 = experiment: microbe, parasite or virus in culture; type: cell-based; settings: Enterovirus C
Coxsackie A24(HG) = experiment: CPE inhibition assay, Coxsackie A24(HG); type: cell-based; settings: MRC5, 48 h; MRC-5, 37° C., 2 days, FDA
[3] = system: mock-infected cells (HeLa, MRC-5, RD); settings: human
rhinovirus infections = settings: treatment of rhinovirus infections; cited from earlier work
[4] = cited from earlier work; for metabolization and excretion / bioavailability: in vivo
[5] = in vivo; cited from earlier work
[6] = cited from earlier work
[7] = HeLa37, 48 h, read-out: Poliovirus 3 EC50

SMILES | CC50 (in vitro; Picorana CC50) [µg/mL] | melting point [°C] | further results
CCOC(=O)/C=C/[C@H](C[C@@H]1CCNC1=O)NC(=O)[C@@H](CC(=O)[C@@H](NC(=O)c1cc(C)on1)C(C)C)Cc1ccc(F)cc1 [AG 7088] |  |  | concentration range with antiviral effect [1]: nanomolar concentration range
CC(C)S(=O)(=O)n1c(N)nc2ccc(/C(=N/O)c3ccccc3)cc21 [Enviroxime] |  |  | pharmacokinetics [2]: bad pharmacokinetics; side effects [2]: unwanted side effects; therapeutic effects [2]: insignificant or few therapeutic effects
CCOC(=O)OC12Oc3cc(C(C)C)ccc3C1(O)C(=O)c1ccccc12 (centres unmarked) [Example 38, Ethyl 9b-hydroxy-7-isopropyl-10-oxo-9b,10-dihydro-4bH-benzo[d]indeno[1,2-b]furan-4b-yl carbonate] | 9.5 (≈ 25.8 µM) | 144 to 147 | 
COC(=O)c1ccc2c(c1)C1(O)C(=O)c3ccccc3C1(O)O2 (centres unmarked) [Example 39, Methyl 4b,9b-dihydroxy-10-oxo-9b,10-dihydro-4bH-benzo[d]indeno[1,2-b]furan-8-carboxylate] | 45.1 (≈ 144 µM) | 220 to 223 | 
CCN(CC)C(=O)OC12Oc3cc(C(C)C)ccc3C1(O)C(=O)c1ccccc12 (centres unmarked) [Example 40, 9b-Hydroxy-7-isopropyl-10-oxo-9b,10-dihydro-4bH-benzo[d]indeno[1,2-b]furan-4b-yl diethylcarbamate] | 44 (≈ 111 µM) | 127 to 130 | 
CCN(CC)C(=O)OC12C(=O)c3ccccc3C1(O)Oc1cc(C(C)C)ccc12 (centres unmarked) [Example 41, 4b-Hydroxy-7-isopropyl-10-oxo-9b,10-dihydro-4bH-benzo[d]indeno[1,2-b]furan-9b-yl diethylcarbamate] | 27.1 (≈ 68.6 µM) | 101 to 104 | 
CC(C)c1ccc2c(c1)OC1(O)c3cc(F)c(F)cc3C(=O)C21O (centres unmarked) [Example 42, 2,3-Difluoro-4b,9b-dihydroxy-7-isopropyl-4bH-benzo[d]indeno[1,2-b]furan-10(9bH)-one] | 8.94 (≈ 26.9 µM) | 134 to 136 | 
CC(C)c1ccc2c(c1)O[C@@]1(O)c3cccc(O)c3C(=O)[C@@]21O [Example 43, 1,4b,9b-Trihydroxy-7-isopropyl-4bH-benzo[d]indeno[1,2-b]furan-10(9bH)-one] |  | 205 to 207 | CC50 (in vitro): 33.2 µg/mL (≈ 106 µM)
CC(C)c1ccc2c(c1)O[C@@]1(O)c3cc4ccccc4cc3C(=O)[C@@]21O [Example 44, 4b,9b-Dihydroxy-7-isopropyl-1H-cyclopenta[b]naphthalene o[1,2-b]furan-10(9bH)-one] | 6.25 (≈ 18 µM) | 186 to 189 | 
CC(=O)O[C@@]12Oc3cc(C(C)C)ccc3[C@]1(OC(C)=O)C(=O)c1c(N)cccc12 [Example 47, 1-Amino-7-isopropyl-10-oxo-9b,10-dihydro-4bH-benzo[d]indeno[1,2-b]furane-4b,9b-diyl diacetate] |  | 220 to 223 | CC50 (in vitro): 15.4 µg/mL; EC50 (Coxsackie A24(DN)): 0.055 µg/mL; EC50 (Poliovirus 3; [7]): < 0.1 µg/mL; EC50 (Poliovirus 3; read-out: Poliovirus3 EC50): < 0.1 µg/mL; EC50 (Coxsackie A24(HG)): < 0.01 µg/mL
CC(=O)Nc1cccc2c1C(=O)C1(O)c3ccc(C(C)C)cc3OC21O (centres unmarked) [Example 48, N-(4b,9b-Dihydroxy-7-isopropyl-10-oxo-9b,10-dihydro-4bH-benzo[d]indeno[1,2-b]furan-1-yl)acetamide] | 35 (≈ 99.1 µM) | 152 to 154 | 
COC(=O)Nc1cccc2c1C(=O)C1(O)c3ccc(C(C)C)cc3OC21O (centres unmarked) [Example 49, Methyl 4b,9b-dihydroxy-7-isopropyl-10-oxo-9b,10-dihydro-4bH-benzo[d]indeno[1,2-b]furan-1-ylcarbamate] | 9.18 (≈ 24.9 µM) | 96 to 99 | 
CCc1ccc2c(c1)OC1(O)c3cccc(N)c3C(=O)C21O (centres unmarked) [Example 50, 1-Amino-7-ethyl-4b,9b-dihydroxy-4b,9b-dihydro-5-oxa-indeno[2,1-a]inden-10-one] |  | 200 to 203 | CC50 (in vitro): 49.9 µg/mL (≈ 168 µM); EC50 (Poliovirus 3; [7]): < 0.1 µg/mL; EC50 (Poliovirus 3; read-out: Poliovirus3 EC50): < 0.1 µg/mL
COC(=O)O[C@@]12Oc3cc(C(C)C)ccc3[C@]1(OC(=O)OC)C(=O)c1c(N)cccc12 [Example 51] | 17.5 (≈ 40.9 µM) | 110 to 120 | 
CCc1ccc2c(c1)OC1(O)c3ccc(O)cc3C(=O)C21O (centres unmarked) [Example 52, 7-Ethyl-2,4b,9b-trihydroxy-4b,9b-dihydro-5-oxa-indeno[2,1-a]inden-10-one] | > 50 | 208 to 213 | 
CC(=O)OC12Oc3cc(C(C)C)ccc3C1(OC(C)=O)C(=O)c1c([N+](=O)[O-])cccc12 (centres unmarked) [Example 53] | 45.6 (≈ 107 µM) | 201 to 203 | 

SMILES | CC50 (in vitro; Picorana CC50) [µg/mL] | melting point [°C] | further results
CC(C)NC(=O)Nc1cccc2c1C(=O)C1(O)c3ccc(C(C)C)cc3OC21O (centres unmarked) [Example 55] | 7.49 (≈ 18.9 µM) | 81 to 85 | 
CC(=O)Nc1cccc2c1C(=O)C1(N)c3ccc(C(C)C)cc3OC21O (centres unmarked) [Example 56] | 42.2 (≈ 120 µM) | 152 to 156 | 
CC(=O)Nc1cccc2c1C(=O)C1(NC(C)=O)c3ccc(C(C)C)cc3OC21O (centres unmarked) [Example 57, N,N′-(4b-Hydroxy-7-isopropyl-10-oxo-9b,10-dihydro-4bH-benzo[d]indeno[1,2-b]furane-1,9b-diyl)diacetamide] | 46.7 (≈ 118 µM) | 189 to 191 | 
CC(C)c1ccc2c(c1)OC1(O)c3c(N)ccc(N)c3C(=O)C21O (centres unmarked) [Example 61, 1,4-diamino-4b,9b-dihydroxy-7-isopropyl-4bH-benzo[d]indeno[1,2-b]furan-10(9bH)-one] | > 50 | 223 to 231 | 
CC(C)c1ccc2c(c1)OC1(O)c3ccc(N)c(N)c3C(=O)C21O (centres unmarked) [Example 62, 1,2-Diamino-4b,9b-dihydroxy-7-isopropyl-4bH-indeno[1,2-b]benzofuran-10(9bH)-one] | > 50 | 163 to 166 | 
CC(C)c1ccc2c(c1)OC1(OCCO)c3ccccc3C(=O)C21O (centres unmarked) [Example 79, 9b-Hydroxy-4b-(2-hydroxyethoxy)-7-isopropyl-4bH-benzo[d]indeno[1,2-b]furan-10(9bH)-one] | 10.4 (≈ 30.6 µM) | 100 to 105 | 
CC(C)c1ccc2c(c1)O[C@@]1(O)c3cccc([N+](=O)[O-])c3C(=O)[C@@]21O [Example 80, 4b,9b-Dihydroxy-7-isopropyl-1-nitro-4bH-benzo[d]indeno[1,2-b]furan-10(9bH)-one] | 47.5 (≈ 139 µM) | 186 to 188 | 
COc1cc2c(cc1OC)[C@]1(O)Oc3cc(C(C)C)ccc3[C@]1(O)C2=O [Example 81, 4b,9b-Dihydroxy-7-isopropyl-2,3-dimethoxy-4bH-benzo[d]indeno[1,2-b]furan-10(9bH)-one] | 8.61 (≈ 24.2 µM) | 127 to 129 | 
Cc1cc2c(cc1C)C1(O)Oc3cc(C(C)C)ccc3C1(O)C2=O (centres unmarked) [Example 82, 4b,9b-dihydroxy-7-isopropyl-2,3-dimethyl-4bH-benzo[d]indeno[1,2-b]furan-10(9bH)-one] | 1.9 (≈ 5.86 µM) | 138 to 140 | 
COC(=O)N[C@@]12C(=O)c3ccccc3[C@]1(O)Oc1cc(C(C)C)ccc12 [Example 84, Methyl (4bS,9bS)-4b-hydroxy-7-isopropyl-10-oxo-9b,10-dihydro-4bH-benzo[d]indeno[1,2-b]furan-9b-ylcarbamate] | > 50 | 161 to 163 | 
CC(=O)Nc1cccc2c1C(=O)[C@@]1(NC(C)=O)c3ccc(C(C)C)cc3O[C@@]21O [Example 87, N,N′-((4bS,9bS)-4b-Hydroxy-7-isopropyl-10-oxo-9b,10-dihydro-4bH-benzo[d]indeno[1,2-b]furane-1,9b-diyl)diacetamide] | 36.8 (≈ 93.2 µM) | 205 to 207 | 
CC(C)c1ccc2c(c1)OC1(O)c3cccc(N)c3C(=O)C21NC(=O)c1[nH]nc2ccccc12 (centres unmarked) [Example 288, N-(1-Amino-4b-hydroxy-7-isopropyl-10-oxo-9b,10-dihydro-4bH-benzo[d]indeno[1,2-b]furan-9b-yl)-2H-indazole-3-carboxamide] |  |  | EC50 (Poliovirus 3; read-out: Poliovirus3 EC50): 0.029 µg/mL (≈ 0.0638 µM); Picorana CC50 [3]: >10 µg/mL
Cc1cc(CCCOc2c(C)cc(-c3noc(C(F)(F)F)n3)cc2C)on1 [Pleconaril, pleconaril] |  |  | side effects (rhinovirus infections): side effects were observed; therapy success (rhinovirus infections): therapy success was too low; oral bioavailability ([4]; oral): very good oral bioavailability
Cc1cc(CCCCCOc2c(Cl)cc(C3=NCCO3)cc2Cl)on1 [WIN 54954] |  |  | side effects [5]: skin rash; metabolization and excretion [4]: rapid metabolization and excretion
CCC(=O)C(CCCCCCOc1ccc(OC)cc1Cl)C(=O)CC [arildone, Arildone] |  |  | solubility [6]: poor solubility; bioavailability [4]: low bioavailability
Cc1cc(CCCCCCCOc2ccc(C3=NCCO3)cc2)on1 [disoxaril] |  |  | bioavailability [4]: low bioavailability; metabolization and excretion [4]: rapid metabolization and excretion

From patent publication US9890133B2 (priority 2011, dated 2018)
